The target in experiment [1] is EGFR (UniProt P00533).
In experiment [2] the target is EGFR, P00533 [L858R].
The target of experiment [3] is EGFR, P00533 [L861Q].

SMILES strings stand for the structures. A value given as a limit tells only on which side of the number the result lay.

Sequence of EGFR (P00533 whole entry, looked up): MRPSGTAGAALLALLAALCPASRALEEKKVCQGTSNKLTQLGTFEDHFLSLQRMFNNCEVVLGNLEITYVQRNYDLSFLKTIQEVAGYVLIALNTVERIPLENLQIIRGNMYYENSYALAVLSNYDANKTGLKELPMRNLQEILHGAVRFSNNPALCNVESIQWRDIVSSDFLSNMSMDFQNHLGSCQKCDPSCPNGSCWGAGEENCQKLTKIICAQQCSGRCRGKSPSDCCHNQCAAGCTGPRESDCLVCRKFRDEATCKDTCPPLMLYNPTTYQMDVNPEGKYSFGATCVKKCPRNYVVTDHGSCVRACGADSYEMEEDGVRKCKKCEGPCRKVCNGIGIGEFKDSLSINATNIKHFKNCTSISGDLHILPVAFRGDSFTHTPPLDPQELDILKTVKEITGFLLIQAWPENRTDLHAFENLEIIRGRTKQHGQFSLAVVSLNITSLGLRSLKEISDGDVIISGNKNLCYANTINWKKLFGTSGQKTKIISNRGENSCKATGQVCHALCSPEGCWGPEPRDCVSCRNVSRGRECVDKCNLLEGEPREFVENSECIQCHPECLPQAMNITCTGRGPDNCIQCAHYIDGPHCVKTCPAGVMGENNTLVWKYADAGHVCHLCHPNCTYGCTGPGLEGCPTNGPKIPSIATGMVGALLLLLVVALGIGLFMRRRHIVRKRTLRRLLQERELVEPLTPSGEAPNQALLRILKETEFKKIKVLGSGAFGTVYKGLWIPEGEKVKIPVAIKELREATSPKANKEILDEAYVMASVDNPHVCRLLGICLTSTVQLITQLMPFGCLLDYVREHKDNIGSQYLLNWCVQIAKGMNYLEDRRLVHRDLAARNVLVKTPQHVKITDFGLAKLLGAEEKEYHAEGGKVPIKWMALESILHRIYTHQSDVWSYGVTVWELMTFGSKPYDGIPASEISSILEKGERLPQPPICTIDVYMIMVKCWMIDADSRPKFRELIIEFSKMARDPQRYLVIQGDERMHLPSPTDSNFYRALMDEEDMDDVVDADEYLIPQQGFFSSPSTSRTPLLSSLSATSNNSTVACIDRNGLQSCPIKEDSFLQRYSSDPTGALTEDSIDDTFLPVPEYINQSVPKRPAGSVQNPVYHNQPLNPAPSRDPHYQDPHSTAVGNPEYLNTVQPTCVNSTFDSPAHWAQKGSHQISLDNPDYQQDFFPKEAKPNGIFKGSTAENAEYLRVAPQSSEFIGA
Sequence of EGFR, P00533 [L861Q] (P00533 whole entry L861Q, looked up): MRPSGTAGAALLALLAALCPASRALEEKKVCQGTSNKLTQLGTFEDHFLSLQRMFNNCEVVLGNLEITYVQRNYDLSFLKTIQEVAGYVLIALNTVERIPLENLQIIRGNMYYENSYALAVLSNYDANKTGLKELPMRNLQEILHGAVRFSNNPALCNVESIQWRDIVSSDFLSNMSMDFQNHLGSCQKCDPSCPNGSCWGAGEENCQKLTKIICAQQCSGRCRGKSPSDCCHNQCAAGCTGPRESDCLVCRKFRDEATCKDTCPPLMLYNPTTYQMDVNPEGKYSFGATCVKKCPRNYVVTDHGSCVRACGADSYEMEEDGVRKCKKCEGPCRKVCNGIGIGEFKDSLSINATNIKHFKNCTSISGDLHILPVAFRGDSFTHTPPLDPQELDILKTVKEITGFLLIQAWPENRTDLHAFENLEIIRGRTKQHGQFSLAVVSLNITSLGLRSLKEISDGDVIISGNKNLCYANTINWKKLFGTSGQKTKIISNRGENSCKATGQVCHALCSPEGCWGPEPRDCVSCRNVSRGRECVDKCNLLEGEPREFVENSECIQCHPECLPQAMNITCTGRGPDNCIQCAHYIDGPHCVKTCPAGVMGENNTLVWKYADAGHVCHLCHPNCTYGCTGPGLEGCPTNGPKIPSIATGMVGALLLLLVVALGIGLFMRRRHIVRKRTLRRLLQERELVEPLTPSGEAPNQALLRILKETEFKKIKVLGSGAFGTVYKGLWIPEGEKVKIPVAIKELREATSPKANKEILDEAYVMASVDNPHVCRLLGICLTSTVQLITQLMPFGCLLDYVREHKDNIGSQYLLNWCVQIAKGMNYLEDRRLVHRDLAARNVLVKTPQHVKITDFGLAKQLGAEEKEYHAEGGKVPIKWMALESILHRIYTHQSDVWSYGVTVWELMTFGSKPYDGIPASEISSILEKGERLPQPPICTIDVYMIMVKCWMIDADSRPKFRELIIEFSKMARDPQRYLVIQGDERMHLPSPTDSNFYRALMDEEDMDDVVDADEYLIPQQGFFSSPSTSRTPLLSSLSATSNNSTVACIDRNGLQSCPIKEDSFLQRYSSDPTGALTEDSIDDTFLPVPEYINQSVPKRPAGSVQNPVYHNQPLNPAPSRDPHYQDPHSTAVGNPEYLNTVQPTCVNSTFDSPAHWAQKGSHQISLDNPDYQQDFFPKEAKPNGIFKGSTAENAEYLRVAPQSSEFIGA
Sequence of EGFR, P00533 [L858R] (P00533 whole entry L858R, looked up): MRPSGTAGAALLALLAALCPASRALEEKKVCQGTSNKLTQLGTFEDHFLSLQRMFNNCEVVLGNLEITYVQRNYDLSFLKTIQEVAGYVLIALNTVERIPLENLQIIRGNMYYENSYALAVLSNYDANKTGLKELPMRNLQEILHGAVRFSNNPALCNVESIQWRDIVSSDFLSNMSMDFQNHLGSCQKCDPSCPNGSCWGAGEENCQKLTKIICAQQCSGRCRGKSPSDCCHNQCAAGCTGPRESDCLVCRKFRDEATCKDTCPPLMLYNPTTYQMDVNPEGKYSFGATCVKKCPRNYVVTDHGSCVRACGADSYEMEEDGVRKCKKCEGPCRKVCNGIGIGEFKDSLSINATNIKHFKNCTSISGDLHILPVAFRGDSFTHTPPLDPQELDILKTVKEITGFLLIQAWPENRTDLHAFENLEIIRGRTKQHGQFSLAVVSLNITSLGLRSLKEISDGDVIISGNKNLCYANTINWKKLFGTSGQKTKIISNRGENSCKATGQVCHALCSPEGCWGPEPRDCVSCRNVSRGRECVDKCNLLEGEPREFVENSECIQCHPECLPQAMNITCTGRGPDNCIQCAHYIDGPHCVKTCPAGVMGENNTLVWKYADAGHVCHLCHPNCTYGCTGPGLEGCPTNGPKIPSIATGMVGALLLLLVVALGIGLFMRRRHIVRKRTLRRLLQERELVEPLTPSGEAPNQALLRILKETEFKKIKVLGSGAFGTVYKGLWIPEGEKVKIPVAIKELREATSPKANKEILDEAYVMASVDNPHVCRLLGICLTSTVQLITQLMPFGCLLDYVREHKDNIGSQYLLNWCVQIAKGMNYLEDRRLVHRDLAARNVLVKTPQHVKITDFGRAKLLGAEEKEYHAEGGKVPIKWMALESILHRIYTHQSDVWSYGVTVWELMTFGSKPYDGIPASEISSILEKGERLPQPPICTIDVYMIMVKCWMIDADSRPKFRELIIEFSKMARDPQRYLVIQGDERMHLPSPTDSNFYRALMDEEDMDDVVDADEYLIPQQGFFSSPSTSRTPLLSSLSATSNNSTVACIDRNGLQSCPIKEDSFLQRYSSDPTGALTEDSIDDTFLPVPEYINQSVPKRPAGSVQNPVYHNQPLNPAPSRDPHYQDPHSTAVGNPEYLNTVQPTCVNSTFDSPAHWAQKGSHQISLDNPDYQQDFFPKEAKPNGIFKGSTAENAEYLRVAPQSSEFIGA

One may read the IC50 as the concentration that gives 50% inhibition. High values mean lower potency, low ones higher potency. In the case of `O=C(Nc1cccc(Nc2ccnc(Nc3cccc(C(F)(F)F)c3)n2)c1)C1CC1`, the half-inhibitory concentration (IC50) in experiment [1] is over 10000 nM.
Regarding `CN(c1cccc(NC(=O)C2CC2)c1)c1cc(Nc2cccc(C(F)(F)F)c2)ncn1`, in experiment [1], the half-inhibitory concentration (IC50) was over 10000 nM.
Still for that read-out and setting: for `Cc1ccccc1Nc1cc(Nc2cccc(NC(=O)C3CC3)c2)ncn1` the value was 7 nM; for `O=C(Nc1cccc(Nc2cc(Nc3ccccc3Cl)ncn2)c1)C1CC1`, 35 nM.
Regarding `FC(F)(F)c1cccc(Nc2ccnc(Nc3cccc(C(F)(F)F)c3)c2)c1`, the IC50 in experiment [1] is over 10000 nM.
Still for that read-out and setting: for `FC(F)(F)c1cccc(Oc2cc(Oc3cccc(C(F)(F)F)c3)ncn2)c1` the value was over 10000 nM; for `O=C(Nc1cccc(Nc2cc(Oc3cccc(C(F)(F)F)c3)ncn2)c1)C1CC1`, 14 nM.
The same measure, in the same setting: for `O=C(Nc1cccc(Nc2nccc(Nc3cccc(C(F)(F)F)c3)n2)c1)C1CC1` the value was over 10000 nM; for `COc1ccc(Cl)cc1-c1cc(Nc2cccc(NC(=O)C3CC3)c2)ncn1`, over 10000 nM.
Regarding `O=C(Nc1cccc(Nc2cc(Nc3cccc(C(F)(F)F)c3)ncn2)c1)C1CC1`, the results for the IC50 in experiment [2], in experiment [3] and in experiment [1] were 63 nM, 4 nM and 21 nM, respectively.
Molecule `COc1ccc(OC)c(-c2cc(Nc3cccc(NC(=O)C4CC4)c3)ncn2)c1` returned an IC50 in experiment [1] of over 10000 nM.
On the same count and under the same terms, to `COc1ccc(Nc2cc(Nc3cccc(C(F)(F)F)c3)ncn2)cc1NC(=O)C1CCCCC1` belongs 3600 nM; to `O=C(Nc1cccc(Nc2cc(NCc3ccc(C(F)(F)F)cc3)ncn2)c1)C1CC1`, 1760 nM; to `COc1ccc(Nc2cc(Nc3cccc(C(F)(F)F)c3)ncn2)cc1NC(=O)C1CC1`, 120 nM.
Still for that read-out and setting: for `FC(F)(F)c1cccc(Nc2cc(Nc3cccc(C(F)(F)F)c3)ncn2)c1` the value was 32 nM; for `CN(c1cccc(C(F)(F)F)c1)c1cc(Nc2cccc(NC(=O)C3CC3)c2)ncn1`, 19 nM.

The record behind these values is the Kinase Knowledgebase extract (Sharma et al. 2016).
